From patent US20080287398A1, “COLD MENTHOL RECEPTOR-1 ANTAGONISTS” (priority 2007, published 2008)
Where “and” joins values, the source holds several entries; their conditions need not be identical. Equal values may be shown once. Read-outs that look alike come from different tables or passages of the source.

Target: T1, canine TRPM8 (Canis lupus familiaris, UniProt Q1A7N1)
T1 construct: expressed in transfected cells
Experiment: In vitro canine TRPM8 functional assay (Ca2+-sensitive dye, FLIPR/FDSS, icilin activation)
Type: cell-based
Settings: HEK293 cells expressing canine TRPM8, icilin activation; for % I (0.5 μM): 0.5 μM compound; for IC50: eight-point dose-response; for % I (1 μM): 1 μM compound
Procedure: The functional activity of compounds of Formula (I) was determined by measuring changes in intracellular calcium concentration using a Ca^2+-sensitive fluorescent dye. The changes in fluorescent signal were monitored by a fluorescence plate reader, either a FLIPR™ (Molecular Devices) or FDSS (Hamamatsu).
HEK293 cells stably expressing canine TRPM8 were routinely grown as monolayers in Dulbecco's minimum essential medium supplemented with 10% FBS, 1 mM L-glutamine, 100 units/mL penicillin, 100 ug/mL streptomycin and 400 μg/mL G418. Cells were maintained in 5% CO2 at 37° C. At 24 hrs prior to assay, cells were seeded in clear-base poly-D-lysine coated 384-well plates (BD Biosciences, NJ, USA) at a density of 5,000 cells per well in culture medium and grown overnight in 5% CO2 at 37° C. On assay day, growth media was removed and cells were loaded with Calcium 3 Dye (Molecular Devices) for 35 min at 37° C., under 5% CO2 and then for 25 min at room temperature and atmosphere. Subsequently, cells were tested for agonist-induced increases in intracellular Ca^2+ levels using FLIPR™ or FDSS. Cells were challenged with a compound of Formula (I) (at varying concentrations) and intracellular Ca^2+ was measured for 5 min prior to the addition of icilin to all wells to achieve a final concentration which produces approximately an 80% maximal response.
Basal FI was subtracted prior to normalizing data to percent of maximal response. Curves were generated using the average of quadruplicate wells for each data point, were analyzed using nonlinear regression of either sigmoidal dose response or sigmoidal dose response (variable slope). Finally, the EC50 and IC50 values were calculated with the best-fit dose curve determined by GraphPad Prism.

T1 sequence (Q1A7N1 1-1104): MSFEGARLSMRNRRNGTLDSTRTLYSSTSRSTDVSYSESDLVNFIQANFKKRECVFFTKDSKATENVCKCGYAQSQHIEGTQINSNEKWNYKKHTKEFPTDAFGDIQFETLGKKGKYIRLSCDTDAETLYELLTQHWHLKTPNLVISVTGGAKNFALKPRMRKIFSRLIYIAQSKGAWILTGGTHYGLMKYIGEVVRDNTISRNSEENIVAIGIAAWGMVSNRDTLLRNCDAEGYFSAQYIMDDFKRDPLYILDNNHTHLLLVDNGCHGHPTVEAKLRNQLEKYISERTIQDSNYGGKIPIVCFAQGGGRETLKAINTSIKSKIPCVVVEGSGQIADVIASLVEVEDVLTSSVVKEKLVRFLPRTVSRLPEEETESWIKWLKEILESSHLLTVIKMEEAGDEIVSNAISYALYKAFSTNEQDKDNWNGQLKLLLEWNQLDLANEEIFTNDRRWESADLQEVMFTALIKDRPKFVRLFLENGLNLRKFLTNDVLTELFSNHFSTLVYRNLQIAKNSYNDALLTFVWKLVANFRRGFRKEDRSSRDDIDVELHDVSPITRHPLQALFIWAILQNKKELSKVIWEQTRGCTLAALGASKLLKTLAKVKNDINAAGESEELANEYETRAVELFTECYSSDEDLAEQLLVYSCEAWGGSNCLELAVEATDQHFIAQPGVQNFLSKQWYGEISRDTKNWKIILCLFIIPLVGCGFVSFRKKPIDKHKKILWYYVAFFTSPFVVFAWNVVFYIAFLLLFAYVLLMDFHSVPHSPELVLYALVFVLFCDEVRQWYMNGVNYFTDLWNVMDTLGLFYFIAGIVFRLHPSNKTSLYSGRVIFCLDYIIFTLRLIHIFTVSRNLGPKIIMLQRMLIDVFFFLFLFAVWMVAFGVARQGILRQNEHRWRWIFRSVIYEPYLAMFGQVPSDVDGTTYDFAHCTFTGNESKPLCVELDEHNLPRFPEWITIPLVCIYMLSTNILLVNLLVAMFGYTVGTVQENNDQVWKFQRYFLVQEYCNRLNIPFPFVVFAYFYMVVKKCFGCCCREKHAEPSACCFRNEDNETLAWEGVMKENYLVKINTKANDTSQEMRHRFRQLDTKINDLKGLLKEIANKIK

Row | Compound | % I (0.5 μM) | IC50 (read-out: IC50) | also measured
1 | CCOP(=O)(OCC)C(Cc1ccccc1Cl)c1sc2ccccc2c1Br (racemic) [Cpd 147] | 103% | 0.125 µM | –
2 | CC(C)OP(=O)(OC(C)C)C(Cc1ccc(F)c(C(F)(F)F)c1)c1c(Br)c2ccccc2n1C (centres unmarked) [Cpd 328, [1-(3-Bromo-1-methyl-1H-indol-2-yl)-2-(4-fluoro-3-trifluoromethyl-phenyl)-ethyl]-phosphonic acid diisopropyl ester] | – | 0.193 µM | inhibition at 0.5 µM (HEK293, 0.5 μM compound, read-out: % I (0.5 μM)): 102%
3 | CCOP(=O)(OCC)C(Cc1cccc(OC)c1F)c1sc2ccccc2c1Br (racemic) [Cpd 162] | 103% | 0.032 µM | –
4 | CCOP(=O)(Cc1cc2ccccc2s1)OCc1c(Cl)cccc1Cl (centres unmarked) [Cpd 94, Benzo[b]thiophen-2-ylmethyl-phosphonic acid 2,6-dichloro-benzyl ester ethyl ester] | – | – | % I (5 μM) (5 μM compound): 98%; inhibition at 1 µM (HEK293, read-out: % I (1 μM), 1 μM compound): 79%; IC50 (IC50 (μM)): 0.6 µM
5 | CCOP(=O)(OCC)C(Cc1ccc(OC)c(C(F)(F)F)c1)c1sc2ccccc2c1Br (racemic) [Cpd 152] | 102% and 92% | 0.054 µM and 0.05 µM | –
6 | CCOP(=O)(OCC)C(Cc1ccc(Cl)cc1)c1sc2ccccc2c1Br (centres unmarked) [Cpd 257] | 101% | 0.026 µM | –
7 | CCOP(=O)(OCC)C(Cc1cc(C(F)(F)F)ccc1F)c1sc2ccccc2c1C (centres unmarked) [Cpd 67] | – | 0.33 µM | % I (1 μM): 100%
8 | Cc1c(C(Cc2ccc(F)c(F)c2)P(=O)(OC2CCCCC2)OC2CCCCC2)sc2ccccc12 (centres unmarked) [Cpd 101, [2-(3,4-Difluoro-phenyl)-1-(3-methyl-benzo[b]thiophen-2-yl)-ethyl]-phosphonic acid dicyclohexyl ester] | – | 0.75 µM | inhibition at 1 µM (HEK293, 1 μM compound, read-out: % I (1 μM)): 55%
9 | CC(C)OP(=O)(OC(C)C)C(Cc1cc(C(F)(F)F)ccc1F)c1sc2ccccc2c1Cl (racemic) [Cpd 172] | 104% | 0.105 µM | –
10 | CCOP(=O)(OCC)C(Cc1cc(C(F)(F)F)ccc1Cl)c1sc2ccccc2c1Cl (centres unmarked) [Cpd 274] | 95% | 0.301 µM | –
11 | CC(C)OP(=O)(OC(C)C)C(Cc1cccc(O)c1F)c1sc2ccccc2c1Br (racemic) [Cpd 230] | 97% | 0.01 µM | –
12 | CCOP(=O)(OCC)C(Cc1ccc(Cl)c(F)c1)c1sc2ccccc2c1Br (centres unmarked) [Cpd 258] | 102% | 0.045 µM | –
13 | CC(=O)OCCOP(=O)(OCCOC(C)=O)C(Cc1ccc(F)c(F)c1)c1sc2ccccc2c1Br (racemic) [Cpd 213] | 100% | 0.202 µM | –
14 | CCOP(=O)(OCC)C(Cc1cccc(Cl)c1F)c1sc2ccccc2c1Cl (centres unmarked) [Cpd 272] | 103% | 0.114 µM | –
15 | [2-(3,4-Difluoro-phenyl)-1-(3-methyl-benzo[b]thiophene-2-yl)-ethyl]-methyl-phosphonic acid ethyl ester [Cpd 30] | – | 0.12 µM and 0.2 µM | % I (1 μM): 100% and 99%
16 | CC(C)OP(=O)(OC(C)C)C(Cc1ccc(C(F)(F)F)cc1)c1sc2ccccc2c1Cl (centres unmarked) [Cpd 175] | 104% | 0.072 µM | –
17 | CC(C)OP(=O)(OC(C)C)C(Cc1c(F)c(F)c(O)c(F)c1F)c1sc2ccccc2c1Br (racemic) [Cpd 229] | 95% | 0.156 µM | –
18 | CC(C)OP(=O)(OC(C)C)C(Cc1cc(C(F)(F)F)ccc1Cl)c1sc2ccccc2c1Cl (centres unmarked) [Cpd 178] | 79% | 0.355 µM | –
19 | COc1ccc(CC(c2sc3ccccc3c2Cl)P(=O)(OC(C)C)OC(C)C)cc1C(F)(F)F (centres unmarked) [Cpd 176] | 104% | 0.131 µM | –
20 | CCOP(=O)(OCC)C(Cc1ccc(F)c(F)c1)c1oc2cccc(F)c2c1Br (racemic) [Cpd 206] | – | 0.098 µM | % I (1 μM): 100%
21 | CCOP(=O)(OCC)C(Cc1ccc2ccccc2c1)c1cc2ccccc2s1 (centres unmarked) [Cpd 83] | – | 0.45 µM | % I (1 μM): 84%
22 | CC(C)OP(=O)(OC(C)C)C(Cc1cccc(SC(F)(F)F)c1)c1sc2ccccc2c1Cl (centres unmarked) [Cpd 255] | 103% | 0.058 µM | –
23 | CCOP(=O)(OCC)C(Cc1cccc(Br)c1)c1sc2ccccc2c1Cl (centres unmarked) [Cpd 275] | 103% | 0.104 µM | –
